Experimental data as given in PMC6523382 (Pharmaceutics, 2019).
Read-outs that look alike come from different tables or passages of the source. Each block holds one molecule with its values, some of them ahead of it.

Key:
[1] = Ginsenoside concentrations in rat plasma after oral RGE; assay type: in vivo
Description: Ginsenoside concentrations in RGE and plasma samples were analyzed using an Agilent 6470 triple quadrupole liquid chromatography–tandem mass spectrometry (LC–MS/MS) system (Agilent, Wilmington, DE, USA) equipped with an Agilent 1260 high performance liquid chromatography (HPLC) system, according to a previously published method. […] Aliquots (20 μL) of the supernatant were injected into the LC–MS/MS system for the analysis of ginsenosides. […] The solvent gradient program was as follows: (1) 0–0.5 min, 72% B; (2) 0.5–8.5 min, 84% B; (3) 8.5–19.0 min, 72%.
Quantification of a separated ginsenoside peak was performed at m/z 1131.6 → 365.1 for Rb1 (TR (retention time) 5.0 min), m/z 1101.6 → 335.1 for Rb2 (TR 6.4 min) and Rc (TR 5.2 min), m/z 969.9 → 789.5 for Rd (TR 8.2 min) and Re (TR 1.6 min), m/z 824 → 643.6 for Rg1 (TR = 1.7 min), m/z 807.5 → 365.1 for Rg3 (TR 12.3 min), m/z 661.5 → 203.1 for Rh1 (TR 3.2 min) and F1 (TR 3.9 min), m/z 587.4 → 407.4 for Rh2 (TR 11.5 min), m/z 807.5 → 627.5 for F2 (TR 5.3 min), m/z 645.5 → 203.1 for compound K (TR 9.5 min), m/z 425.4 → 109.1 for protopanaxadiol (TR 18.8 min), m/z 441.3 → 109.1 for protopanaxatriol (TR 2.9 min), and m/z 336.1 → 320 for berberine (internal standard, IS) (TR 3.7 min) in the positive ionization mode with collision energy (CE) of 15–65 eV.

[2] = test system: rat duodenal, jejunal, and ileal segments; experiment: Intestinal absorptive permeability in Ussing chambers; assay type: in vitro ADME
Description: [31]. Briefly, duodenum, jejunum, and ileum segments were dissected and washed as described earlier. The duodenal, jejunal, and ileal segments mounted on the inserts of the Ussing chambers ([…], Holliston, MA, USA) were acclimatized with HBSS for 30 min. […] Aliquots (400 μL) of HBSS in the basal side were withdrawn at 0, 30, 60, 90, and 120 min, and the withdrawn samples were compensated with an equal volume of fresh, preheated HBSS. Carbogen gas (5% CO2/ 95% O2) was bubbled into the Ussing chambers at a rate of 150 drops/min during the experiment. […] For the generation of Na^+ gradient, rat duodenal, jejunal, and ileal segments mounted on the inserts of the Ussing chamber were pretreated with Na^+ free media comprising 10 mM HEPES, 5 mM Tris, 140 mM choline chloride, 2 mM KCl, 1 mM CaCl2, and 1 mM MgCl2 (pH7.4) for 30 min. […] A 100 μL aliquot of samples was transferred to 96-well plates and the fluorescence of Lucifer yellow was read directly in a fluorescence plate reader using a 485 nm excitation and an emission filter of 535 nm.

[3] = set-up: method as in PMID 26869413; details: cited from earlier work
[4] = Pharmacokinetics of metformin after oral administration in rats; details: metformin 50 mg/kg PO, rat; for AUC(0-t): AUC24h
Description: (§1) Aliquots of plasma (20 µL) and urine (50 µL) samples were vigorously mixed with 200 μL methanol containing 20 ng/mL propranolol (internal standard, IS) for 10 min.
(§2) Samples were eluted through a Synergy Polar RP column (2.0 mm × 150 mm, 4 µm particle size, Phenomenex, Torrence, CA, USA) using a mobile phase that consisted of methanol and water (70:30, v/v) with 0.1% formic acid at a flow rate of 0.2 mL/min. […] Pharmacokinetic parameters were evaluated from plasma concentration versus time curves by using non-compartment analysis of WinNonlin (version 5.1; Pharsights, Cary, NC, USA).

[5] = Pharmacokinetics of metformin after intravenous injection in rats; details: rat; for Ae24h (fraction of dose excreted in urine for 24 h as parent form) / AUC(0-t) / AUC(0-inf) / MRT: metformin […] IV; for AUC(0-t) / AUC(0-inf) / C0 / MRT: plasma, iv; for AUC(0-t): AUC24h; for C0: C0, metformin […] IV
Description: An aliquot (50 µL) of urine samples was stored at −80 °C for the analysis.
as §1, §2

[6] = plasma, po, 50 mg/kg, 1WRA of RGE 1.5 g/kg/day
[7] = plasma, po, 50 mg/kg, SA of RGE 1.5 g/kg

Molecule: CC(C)=CCC[C@](C)(O[C@@H]1O[C@H](CO[C@@H]2OC[C@H](O)[C@H](O)[C@H]2O)[C@@H](O)[C@H](O)[C@H]1O)[C@H]1CC[C@]2(C)[C@@H]1[C@H](O)C[C@@H]1[C@@]3(C)CC[C@H](O[C@@H]4O[C@H](CO)[C@@H](O)[C@H](O)[C@H]4O[C@@H]4O[C@H](CO)[C@@H](O)[C@H](O)[C@H]4O)C(C)(C)[C@@H]3CC[C@]12C [Rb2]
Concentration in rat plasma, SA ([1]; 2 h after single oral administration of RGE (1.5 g/kg)): 6.3 ± 2.1 ng/mL
Concentration in rat plasma, 1WRA ([1]; 24 h after last dose of 1-week repeated oral RGE (1.5 g/kg/day)): 29.4 ± 1.5 ng/mL

Molecule: Lucifer yellow
Intestinal absorptive permeability (Papp), effect of RGE [2]: not altered

Molecule: CN(C)C(=N)N=C(N)N [metformin, Metformin]
Fraction of dose absorbed in the duodenum [3]: Approximately 20%
Fraction of dose absorbed in the jejunum and ileum [3]: 60%
Ae24h (fraction of dose excreted in urine for 24 h as parent form) ([4]; 1WRA of RGE 1.5 g/kg/day): 66.29 ± 10.57 %
Tmax ([4]; 1WRA of RGE 1.5 g/kg/day): 2.00 ± 0.01 h
Ae24h (fraction of dose excreted in urine for 24 h as parent form) ([4]; Control): 54.56 ± 3.26%
Ae24h (fraction of dose excreted in urine for 24 h as parent form) ([4]; SA of RGE 1.5 g/kg): 53.04 ± 3.69%
AUC(0-t) [4, 6]: 57600 ± 4990 ng·h/mL
AUC(0-t) ([4]; plasma, po, 50 mg/kg, Control): 44300 ± 8310 ng·h/mL
AUC(0-t) [4, 7]: 45200 ± 11100 ng·h/mL
AUC(0-inf) [4, 6]: 59000 ± 5170 ng·h/mL
AUC(0-inf) ([4]; plasma, po, 50 mg/kg, Control): 44800 ± 8090 ng·h/mL
AUC(0-inf) [4, 7]: 45700 ± 11200 ng·h/mL
Cmax [4, 6]: 9900 ± 1490 ng/mL
Cmax ([4]; plasma, po, 50 mg/kg, Control): 6310 ± 1680 ng/mL
Cmax [4, 7]: 6470 ± 2000 ng/mL
MRT [4, 6]: 4.64 ± 0.68 h
MRT ([4]; plasma, po, 50 mg/kg, Control): 4.85 ± 0.58 h
MRT [4, 7]: 4.69 ± 0.33 h
Tmax ([4]; plasma, po, 50 mg/kg, Tmax, Control): 2.4 ± 0.89 h
Ae24h (fraction of dose excreted in urine for 24 h as parent form) ([5]; 1WRA of RGE 1.5 g/kg/day): 79.56 ± 5.02%
Ae24h (fraction of dose excreted in urine for 24 h as parent form) ([5]; Control): 80.07 ± 4.93%
Ae24h (fraction of dose excreted in urine for 24 h as parent form) ([5]; SA of RGE 1.5 g/kg): 83.52 ± 5.72%
AUC(0-t) ([5]; 1WRA of RGE 1.5 g/kg/day): 980 ± 362 ng·h/mL
AUC(0-t) ([5]; SA of RGE 1.5 g/kg): 1050 ± 237 ng·h/mL
AUC(0-inf) ([5]; 1WRA of RGE 1.5 g/kg/day): 986 ± 364 ng·h/mL
AUC(0-inf) ([5]; SA of RGE 1.5 g/kg): 1050 ± 239 ng·h/mL
C0 ([5]; 1WRA of RGE 1.5 g/kg/day): 1760 ± 438 ng/mL
C0 ([5]; SA of RGE 1.5 g/kg): 1670 ± 623 ng/mL
MRT ([5]; 1WRA of RGE 1.5 g/kg/day): 51 ± 21 min
MRT ([5]; SA of RGE 1.5 g/kg): 48.6 ± 10.2 min

The next lines start with the values.

Intestinal absorptive permeability (Papp), effect of RGE ([2]; 50 µM, duodenum, jejunum, ileum, SA and 1WRA groups vs control): not affected
Molecule: CO[C@@H]([C@H](O)[C@H](O)CO)[C@@H](O)C=O [3-O-methyl-D-glucose]

concentration at 2 h ([1]; rat, plasma, 2 h after single oral administration of RGE (1.5 g/kg), read-out: Concentration in rat plasma, SA): 14.3 ± 2.7 ng/mL
concentration at 24 h ([1]; rat, plasma, 24 h after last dose of 1-week repeated oral RGE (1.5 g/kg/day), read-out: Concentration in rat plasma, 1WRA): 35.7 ± 1.9 ng/mL
Molecule: CC(C)=CCC[C@](C)(O[C@@H]1O[C@H](CO[C@@H]2O[C@H](CO)[C@@H](O)[C@H](O)[C@H]2O)[C@@H](O)[C@H](O)[C@H]1O)[C@H]1CC[C@]2(C)[C@@H]1[C@H](O)C[C@@H]1[C@@]3(C)CC[C@H](O[C@@H]4O[C@H](CO)[C@@H](O)[C@H](O)[C@H]4O[C@@H]4O[C@H](CO)[C@@H](O)[C@H](O)[C@H]4O)C(C)(C)[C@@H]3CC[C@]12C [Rb1]
